Results reported in publication PMC6054100, “Exploring the chemical space of the lysine-binding pocket of the first kringle domain of hepatocyte growth factor/scatter factor (HGF/SF) yields a new class of inhibitors of HGF/SF-MET binding” (Chemical Science, 2015).

Columns and labels:
[1] = biological target: T1, lysine-binding pocket of the kringle domain of NK1 (Homo sapiens, UniProt P14210); test: Soaking into NK1 apo crystals, X-ray crystallography; conditions: soaked into NK1 apo crystals
T1 construct: made in house; host or cells: Pichia pastoris
Protocol: Next, three classes of piperazine-like sulphonated compounds containing piperazine ((H)EPPS and PIPES), morpholine (MES and MOPS), or cyclohexane (CHES and CAPS) rings were studied for their binding to NK1 (Table 1), alongside another five sulphonated compounds selected from a chemical fragment library (Table 2).
NK1 buffered in 150 mM NaCl, 50 mM Tris, pH 7.5 (apo-NK1 and all soaking experiments) was concentrated to ∼20 mg mL^–1 using a Vivaspin device with a 10 kDa cut-off membrane (Sartorius Biolab). Crystallisation was carried out in Linbro plates by the vapour diffusion hanging drop technique using a protein : precipitant ratio of 1 : 1 at 20 °C. Previously NK1 has been crystallised in 18% PEG 4000, 200 mM sodium acetate and 150 mM Tris pH 8.5 as precipitant.[19] Here final crystallisation conditions (19% PEG 4000, 200 mM sodium acetate and 150 mM Tris pH 7.5) were optimised around those to achieve high-resolution apo structure. Details of compound soaking, X-ray data collection and structure determination are given in the ESI ^† section of the manuscript. […]
For this, 1 M stock solutions were prepared in DMSO (fragments) or water (piperazine- like compounds) and the pH adjusted to a value within their buffering range with either HCl or NaOH. The seven piperazine- like compounds and their respective pH are: HEPES (pH 7.6), (H)EPPS (pH 7.4), PIPES (pH 7.0), MES (pH 5.8), MOPS (pH 7.2), CHES (pH 8.6) and CAPS (pH 9.7). Secondary stocks of the compounds at 50 mM were prepared in the […]
respective mother liquor and soaked for up to 48 hours.
MB605 was solubilised in 50% DMSO at 20 mM concentration (1% f inal DMSO concentration in the drop) in order to minimize adverse effects of DMSO on the protein crystal. 25% ethylene glycol was used as the cryoprotective agent.
X-ray data collection and processing
X-ray datasets were collected either at the European Synchrotron Radiation Facility (ESRF, Grenoble, France), the Diamond Light Source (DLS, Oxford, UK) or in-house using the X8 PROTEUM (Bruker AXS) at the Department of Biochemistry, University of Cambridge.
Datasets of at least 180° were collected. Raw data collected at synchrotrons were integrated, merged, scaled and reduced using DENZO and […].2 Raw data […]
collected in- house were integrated, merged, scaled and reduced using the PROTEUM 2 software package .3 The CCP4 suite of crystallographic programs (Collaborative

NK1 [2] = biological target: T2, NK1 (Homo sapiens, UniProt P14210); test: SPR steady-state binding to immobilized NK1 (Biacore T100); parameters: made in house; host or cells: Pichia pastoris
Protocol: Binding constants of piperazine-like compounds and fragments were determined using a Biacore T100 instrument. NK1 was immobilized on a CM5 chip by amine coupling to a density of 6000 RU. Compounds were stored as 100 mM stock solutions in water and serial dilutions were prepared in the running buffer (PBS pH 7.4, 0.05% Tween 20). The compound solutions were injected onto the surface of the chip at a flow rate of 30 μL min^–1, contact time was 1 min and dissociation time 1 min. Sensorgrams were analysed using the Biacore T100 evaluation software and the binding constants determined.

NK1 [3] = biological target: T2, NK1; test: 1H-15N TROSY-HSQC NMR chemical shift titration of 15N-labelled NK1; format: binding; parameters: made in house; host or cells: Pichia pastoris; conditions: steady-state binding constants; piperazine-like compounds; 0.18 mM NK1, pH 7.2, 310 K; read-out: KD in NMR
Protocol: Ligand screening was performed by monitoring the chemical shift variations in ^1H-^15N TROSY-HSQC NMR spectra of the uniformly [^15N]-labelled NK1 protein (Fragai et al. 2015, in prep.) upon the addition of increasing concentrations of the investigated compounds.[43]–[45] The experiments were performed using 0.18 mM protein samples in 25 mM Tris, 100 mM NaCl and 0.01% sodium azide, at pH 7.2 with 10% D2O. The spectra were recorded at 310 K on a Bruker AVANCE 900 MHz spectrometer equipped with a TXI cryo-probe. Sample solutions were prepared from 1 M or 100 mM DMSO stock solutions of the ligands. The dissociation constant values (KD) were calculated by plotting the weighted average ^1H and ^15N chemical shifts of the residues experiencing significant variations as a function of ligand concentration added during the titration and considering the one site binding model.[46]

[4] = tested on: MET downstream signalling (Erk 1/2, Akt) in Vero cells; test: MET, Erk1/2 and Akt phosphorylation assay in NK1-stimulated Vero cells (Western blot); format: cell-based; conditions: Vero cells stimulated with NK1; compound 100 mM (lanes 4)
Protocol: We evaluated the effect of piperazine-like compounds and MB605 on Vero cells by assessing MET, Erk 1/2 and Akt phosphorylation in response to stimulation using […] NK1. MB605 was dissolved in DMSO, which limited the range of concentrations tested to ≤1 mM in order to avoid solvent effects on cell function/viability. The water-soluble piperazine-like compounds, in contrast, could be tested at concentrations up to 100 mM.
Fig. 6 Biological activity of the piperazine-like compounds and MB605. (a–e) Vero cells expressing the receptor endogenously on their cell surface were stimulated with HGF/SF or NK1 and phosphorylation of MET and downstream targets Akt and Erk1/2 was analysed. Piperazine-like compounds HEPES (a), (H)EPPS (b), MES (c), MOPS (d) and CAPS (e) were tested at 100 mM (lanes 4), 10 mM (lanes 5), 1 mM (lanes 6) and 100 μM (lanes 7) concentration in the presence of 1 nM NK1. To control for activating or inhibiting effects of the compounds independently of MET, piperazine-like compounds were tested on cells at 100 mM without stimulation by NK1 (lanes 3). Biological activity of MB605 (f) was investigated at 1 mM (lane 5), 100 μM (lane 6) and 10 μM (lane 7) in the presence of a constant concentration of DMSO (0.1%). A solvent control (0.1% DMSO, lane 3) was included in order to account for the effect of DMSO on the cells. A positive control (1 nM NK1 in the presence of 0.1% DMSO) is shown in lane 4. In all experiments, un-stimulated cells served as negative control (lanes 1) while cells stimulated with 1 nM NK1 served as positive control (lanes 2).
The ability of MB605 and the piperazine-like compounds to inhibit MET, Erk and Akt phosphorylation in the presence of NK1 was tested using mammalian Vero cells as described by Ferraris et al.[47] and further details are given in the ESI ^† section of the manuscript. […]
For MET, Erk1/2 and Akt phosphorylation assays, Vero cells were seeded at 2.1 × 10^5 cells we ll -1 (2 ml we ll -1) in 6-well plates and grown to 90% conf luence in 10% FCS/DMEM media and then switched to serum-free medium (to avoid any growth f actors present in the serum).
24 hours post starvation the cells were stimulated for 5 min at 37°C with each individual piperazine -like compounds as well as with NK1 (1 nM) pre-incubated with different concentrations of the piperazine- like compounds (100 mM, 10 mM, 1 mM and 100 μM) or MB605 (1 mM, 100 μM and 10 μM). Stimulations with either 0. 1% DMS O or 1 nM of NK1 […]
solution were used as a negative and a positive control, respectively. The cells were then washed in PBS buffer, lysed on ice f or 30 min and frozen at -80 °C until further analysis. For

NK1 [5] = biological target: T2, NK1; test: SPR fragment library screening against NK1; format: binding; parameters: made in house; host or cells: Pichia pastoris; conditions: for Ranking order: based on fragment screening, rank among the 71 NK1 hits (ESI Tables S3-S7); for SPR response: normalised relative value against NK1
Protocol: Supplementary Materials and Methods
Fragment library screening and data analysis
Met567 (soluble truncated f ragment of the MET ectodomain, residues 25- 567), NK1 and t he SPH domain were immobilized on CM5 chips by amine coupling. NK1 was diluted into 10 m M phosphate pH 7.0 and the SPH domain into 10 mM acetate pH 5.5 to a final concentration of 2.5 μM and 1 μM, respectively, for coupling. The immobilization wizard within the Biacore T100 software was set to “aim for immobiliz ed level” of 8000 RU to achieve complete saturation of the chip surface.
W ith minor deviations, the procedure and conditions outlined below were used f or a ll screening s of an in-house fragment library of 1338 members against individual target proteins. The running buffer was PBS pH 7.4, 0.05% Tween 20, 0.25% DMSO (1% DMSO for Met567). Fragments were stored as 100 mM stock solutions in DMSO. Prior to screening, fragment samples were diluted to 500 μM (1 mM f or Met567) in running buffer.
Screening was performed in 96- we ll plates at a flow rate of 30 μl min-1 with 1 min sample injection f ollowed by dissociation f or 1 min and surf ace regeneration using 1 M NaCl f or 30 […]
post-regeneration baseline exceeded the pre- sample baseline by more than 10 RU, a second regeneration cycle with 50% ethylene glycol was used. In order to be able to correct for small variations in DMSO concentration between samples, eight solvent samples ranging from 0.012 to 1.5% DMSO were injected every 40th cycle. To monitor the binding capacity of the NK1, SPH and Met567 surfaces throughout the screening, injections of 500 μM HEPES (NK1), 0.25 μM Met567 (SPH) and 0.2 μM NK1 and 1% DMSO (Met567) were carried out every 40th cycle. The flow cell temperature was 25°C. NK1 and the SPH domain were immobilized on the same chip (channels 2 and 3 respectively) and were theref ore screened in parallel. Met567 was screened separately and results are published in an accompanying paper (W in t er et al. 2015, in revision).
For data analysis, fir st, all responses were reference and solvent corrected. 1 Next, equilibrium binding for every fragment was determined and hits established by applying several filters: sensorgram shape, upper and lower threshold. Typical sensorgrams from fragment screening show “square curves” in SPR due to the fast on and off rates and fragments not showing this response were discarded from further analysis. Binding levels are represented as response units (RU) but the SPR signal is a convolution of multiple parameters including target coupling density, target -binding activity, target molecular weight and molecular weight of each injected fragment. To be able to identif y hits accurately and to be able to compare responses between different plates and targets, data were normalised against these factors. First the theoretical maximum response for each fragment was calculated using equation 1:
RRmmm = CCCCCCCC ddCdCdd× MMffmCmdCd (Equation 1)
This RUmax value diff ers for each protein target because it depends on the molecular weight of the protein and the amount of protein immobilized on the chip (coupling density). The RUmax was then used to calculate the normalised relative SPR response:
NNNNNNNNNN NNNNr NrN SSR NNNrNrNN = RRcppppcppc× 100% (Equation 2) […]
fragment should cause upon binding. 100% response would be 1:1 binding wit h levels above 100% implying over-stoichiometric binding. […]
Fragment library screening to identify small molecule binders

[6] = steady-state binding constants, piperazine-like compounds, immobilized NK1, PBS pH 7.4, read-out: KD in SPR
[7] = steady-state binding constant from SPR (ESI Tables S3-S7), read-out: KD
[8] = fragments 500 μM (ESI Tables S3-S7)
[9] = steady-state binding constant from SPR, fragment hits (Table 3, text), read-out: KD
[10] = initial fragment screening, fragments 500 μM (Table 3)

T1 sequence (P14210 32-210 isoform P14210-6 limits assumed): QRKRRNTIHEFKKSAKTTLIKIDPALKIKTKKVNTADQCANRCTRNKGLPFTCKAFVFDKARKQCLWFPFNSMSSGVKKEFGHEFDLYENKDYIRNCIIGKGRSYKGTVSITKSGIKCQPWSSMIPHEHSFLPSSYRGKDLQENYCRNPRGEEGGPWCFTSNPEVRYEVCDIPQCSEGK
T2 sequence (P14210 32-210 isoform P14210-6 limits assumed): as above

Compound | Kd (NK1 [2]; [7]) [mM] | Ranking order (NK1 [5]) | SPR response (NK1 [5]; [8]) [%] | further results
O=S(=O)(O)CCNC1CCCCC1 [CHES] | – | – | – | binding in the lysine-binding pocket (crystal structure) [1]: bind the lysine-binding pocket of NK1; Kd (NK1 [2]; [6]): 30.2 ± 3.1 mM; Kd (NK1 [3]): 15.7 ± 4.5 mM
O=S(=O)(O)CCCN1CCN(CCO)CC1 [(H)EPPS] | – | – | – | Inhibition of phosphorylation of Erk 1/2 and Akt (S473) [4]: Inhibition of phosphorylation; Kd (NK1 [2]; [6]): 7 ± 1 mM; Kd (NK1 [3]): 4.4 ± 1.8 mM
O=S(=O)(O)CCCO [2FA, 3-Hydroxypropane-1-sulphonic acid] | – | – | – | binding in the lysine-binding pocket (crystal structure) [1]: bound in the lysine-binding pocket
O=S(=O)(O)CCN1CCN(CCS(=O)(=O)O)CC1 [PIPES, reference compound] | – | – | – | Kd (NK1 [2]; [6]): 26.6 ± 0.6 mM; Kd (NK1 [3]): 45.9 ± 4.7 mM
O=S(=O)(O)CCCN1CCOCC1 [MOPS] | – | – | – | Inhibition of phosphorylation of Erk 1/2 and Akt (S473) [4]: Inhibition of phosphorylation; binding in the lysine-binding pocket (crystal structure) [1]: bind the lysine-binding pocket of NK1; Kd (NK1 [2]; [6]): 7 ± 1 mM; Kd (NK1 [3]): 4.7 ± 1.7 mM
CNCc1cccnc1 [MB1290] | 1.64 | 9 | 102 | –
Cc1cccc(C)c1C#N [MB1283] | – | 13 | 94 | KD (NK1 [2]; steady-state binding constant from SPR, fragment hits (Table 3, text)): lowest affinity
Cc1ccc(C(=O)O)cc1Cl [MB1306] | 2.5 | 21 | 77 | –
Nc1ccncc1 [MB404] | 2.8 | 5 | 118 | –

Further lines, with some results ahead:

Kd (NK1 [2]; [7]) [mM] | Ranking order (NK1 [5]) | SPR response (NK1 [5]; [8]) [%] | Compound | further results
1.2 | 19 | 83 | Cc1nc(-c2ccc(C#N)cc2)cs1 [MB1236] | –
– | 47 | 52 | CCCc1ccc(C(C)=O)cc1 [MB1315] | Kd (NK1 [2]; [9]): 0.94 ± 0.09 mM; SPR response (NK1 [5]; [10]): 52%
2.2 | 2 | 131 | Cc1cc(C)on1 [MB1299] | –
5.6 | 8 | 105 | Cc1ccc(C#N)c(=O)[nH]1 [MB1260] | –
– | 15 | 90 | Cc1cccc(C(N)=O)c1C [MB1284] | Kd (NK1 [2]; [9]): 0.86 ± 0.07 mM; SPR response (NK1 [5]; [10]): 90%
1 | 41 | 54 | Cc1cc(N)n(C)n1 [MB935] | –
1.6 | 24 | 71 | N#Cc1ccsc1N [MB915] | –
